Measurements published in the NIST ThermoML archive (doi:10.1021/acs.jced.7b00939).
Values joined by “and” are separate entries in the source; they are usually repeats but may differ in a detail not shown here. Identical values can stand only once.

Settings: Liquid, Vibrating tube method

CCCCC(CC)COC(=O)c1ccc(C(=O)OCC(CC)CCCC)c(C(=O)OCC(CC)CCCC)c1 (stereo unspecified) [tris(2-ethylhexyl) trimellitate]
Settings	mass density
328.15 K, 5110 kPa	965.697 kg/m3
328.15 K, 10110 kPa	968.884 kg/m3
328.15 K, 20120 kPa	974.939 kg/m3
328.15 K, 30110 kPa	980.701 kg/m3
333.15 K, 100 kPa	959.014 kg/m3 [middle of 4 runs]
353.15 K, 100 kPa	944.616 kg/m3 [middle of 4 runs]
363.15 K, 100 kPa	937.285 kg/m3 and 937.369 kg/m3
363.15 K, 5110 kPa	941.043 kg/m3
363.15 K, 10110 kPa	944.715 kg/m3
363.15 K, 20120 kPa	951.677 kg/m3
363.15 K, 30130 kPa	958.176 kg/m3
363.15 K, 40130 kPa	964.291 kg/m3
363.15 K, 50140 kPa	969.983 kg/m3
373.15 K, 100 kPa	930.229 kg/m3 and 930.252 kg/m3
383.15 K, 100 kPa	923.009 kg/m3 and 923.041 kg/m3 and 923.028 kg/m3
388.15 K, 100 kPa	919.579 kg/m3
388.15 K, 2640 kPa	921.672 kg/m3
388.15 K, 5170 kPa	923.804 kg/m3
388.15 K, 7730 kPa	925.892 kg/m3
388.15 K, 10170 kPa	927.866 kg/m3
388.15 K, 15260 kPa	931.875 kg/m3
388.15 K, 20280 kPa	935.659 kg/m3
388.15 K, 30390 kPa	942.915 kg/m3
388.15 K, 40500 kPa	949.605 kg/m3
388.15 K, 50560 kPa	955.87 kg/m3
388.15 K, 68700 kPa	966.125 kg/m3
393.15 K, 100 kPa	915.76 kg/m3 and 915.768 kg/m3
403.15 K, 100 kPa	908.475 kg/m3 and 908.487 kg/m3 and 908.679 kg/m3
403.15 K, 2640 kPa	910.921 kg/m3
403.15 K, 5110 kPa	912.879 kg/m3
403.15 K, 5170 kPa	913.199 kg/m3
403.15 K, 7690 kPa	915.392 kg/m3
403.15 K, 10110 kPa	917.229 kg/m3
403.15 K, 10220 kPa	917.585 kg/m3
403.15 K, 15270 kPa	921.805 kg/m3
403.15 K, 20110 kPa	925.405 kg/m3
403.15 K, 20320 kPa	925.852 kg/m3
403.15 K, 30120 kPa	932.929 kg/m3
403.15 K, 30380 kPa	933.471 kg/m3
403.15 K, 40120 kPa	939.962 kg/m3
403.15 K, 40430 kPa	940.482 kg/m3
403.15 K, 50130 kPa	946.45 kg/m3
403.15 K, 50540 kPa	947.085 kg/m3
403.15 K, 68140 kPa	957.148 kg/m3
403.15 K, 68470 kPa	957.846 kg/m3
413.15 K, 100 kPa	901.142 kg/m3 and 901.152 kg/m3
423.15 K, 100 kPa	893.777 kg/m3 and 893.78 kg/m3
423.15 K, 2590 kPa	896.162 kg/m3
423.15 K, 5100 kPa	898.654 kg/m3
423.15 K, 7590 kPa	901.053 kg/m3
423.15 K, 10100 kPa	903.407 kg/m3
423.15 K, 20110 kPa	912.286 kg/m3
423.15 K, 30120 kPa	920.442 kg/m3
423.15 K, 40120 kPa	927.911 kg/m3
423.15 K, 50120 kPa	934.915 kg/m3
423.15 K, 68140 kPa	946.287 kg/m3
